Measurements taken from PubChem BioAssay (NCI).
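Each compound was tested at five concentrations against cells in 96-well plates for 48 hours. TGI is the concentration that stops growth completely.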

Key:
Assay in all cases: NCI anticancer screen, dose series, 48 h
[1] = tested on: PC-3 prostate
[2] = tested on: OVCAR-4 ovarian
[3] = tested on: OVCAR-3 ovarian
[4] = tested on: MDA-MB-231 breast
[5] = tested on: KM12 colon
[6] = tested on: BT-549 breast
[7] = tested on: HT29 colon
[8] = tested on: U251 CNS
[9] = tested on: 786-0 renal
[10] = tested on: A498 renal
[11] = tested on: SK-MEL-2 melanoma
[12] = tested on: K-562 leukemia
[13] = tested on: A549 NSCLC

Structure (SMILES) | TGI [1] | TGI [2] | TGI [3] | TGI [4] | TGI [5] | TGI [6] | TGI [7] | TGI [8] | TGI [9] | TGI [10] | TGI [11] | TGI [12] | TGI [13]
CC(=O)OC1CC2c3cccc4c3C(CC2N(C)C1=O)CN4C(=O)c1ccccc1 (stereo unspecified) | 79.6 µM | 92.3 µM | 30.1 µM | 52.4 µM | 55.8 µM | 33.1 µM | 49.9 µM | 53.3 µM | 52.2 µM | 74.6 µM | 64.9 µM | > 100 µM | 37.2 µM
CN1CCOC1(C)CO (stereo unspecified) | > 100 µM | > 100 µM | > 100 µM | > 100 µM | > 100 µM | > 100 µM | > 100 µM | > 100 µM | > 100 µM | > 100 µM | > 100 µM | > 100 µM | > 100 µM
Clc1ccc(Cl)c(Nc2ccnc(SCc3ccccc3)n2)c1 | > 100 µM | > 100 µM | > 100 µM | > 100 µM | > 100 µM | > 100 µM | > 100 µM | > 100 µM | > 100 µM | > 100 µM | > 100 µM | > 100 µM | > 100 µM
N#CSc1nc[nH]c1C(N)=O | > 100 µM | > 100 µM | > 100 µM | > 100 µM | > 100 µM | > 100 µM | > 100 µM | > 100 µM | 98.8 µM | > 100 µM | > 100 µM | > 100 µM | > 100 µM
O=C(c1ccccc1)c1c(-c2ccccc2)[nH]n(-c2ccc([N+](=O)[O-])cc2)c(=O)c1=O | > 100 µM | > 100 µM | > 100 µM | 98.9 µM | > 100 µM | 98.8 µM | > 100 µM | > 100 µM | > 100 µM | > 100 µM | 61.5 µM | > 100 µM | > 100 µM
O=C(NCCCNC(=O)c1ccc2c(O)c(O)ccc2c1)c1ccc2c(O)c(O)ccc2c1 | > 100 µM | > 100 µM | 56.5 µM | > 73.4 µM | 39.7 µM | 35.2 µM | > 64.8 µM | 64.4 µM | 57.9 µM | 98 µM | > 81.6 µM | > 78.7 µM | > 100 µM
COc1cc(/C=C2\C[C@H]3[C@@H]4CC=C5C[C@@H](O)CC[C@]5(C)[C@H]4CC[C@]3(C)C2=O)cc(OC)c1OC | > 100 µM | 96.6 µM | > 100 µM | 81.1 µM | > 100 µM | > 100 µM | 47.7 µM | > 100 µM | 89.5 µM | > 100 µM | 65.4 µM | > 100 µM | > 100 µM
